{
  "source": "patent US20030013694A1",
  "about": "“Use and compositions of antiprogestins for treatment of prostate diseases” (priority 2001, published 2003)",
  "key": {"[1]": {"tested_on": "LNCaP prostate tumor cells", "experiment": "LNCaP human prostate cancer model in testosterone-supplemented male nude mice", "format": "in vivo", "conditions": "compared to control and castration", "experimental": "Male nude mice (M&B) were supplemented with testosterone pellets (Innovative Research of America). LNCaP prostate cancer cells (obtainable from ATCC), obtained from cell culture and suspended in matrigel, were implanted s.c. in the inguinal region of the mice. Treatment was started when the tumors were approximately 25 mm^2 in size. Treatment was continued until progression of the tumors, Experimental groups were: 1) control (vehicle), 2) castration, 3) the antiandrogen casodex, 30 mg/kg s.c., 4) the antiprogestin mifepristone (RU-486), 10 mg/kg sec., and 5) 11β-(4-acetylphenyl)-17β-hydroxy-17α-(1,1,2,2,2-pentafluoroethyl)-estra-4,9-dien-3-one (antiprogestin (I)), 10 mg/kg sc., 5 times weekly. The tumor area was determined by caliper measurements. The Kruskal Wallis test was used for statistical analysis of intergroup differences of mean values. The tumor weight was determined at the end of the experiment."}, "[2]": {"tested_on": "androgen-independent prostate cancer cells", "conditions": "in vitro and in vivo; cited from earlier work"}, "R3327H": {"tested_on": "R3327H", "conditions": "administered alone; R3327H prostate cancer model; cited from earlier work"}},
  "data": [
    {"smiles": "CC(O)(CS(=O)(=O)c1ccc(F)cc1)C(=O)Nc1ccc(C#N)c(C(F)(F)F)c1", "note": "(centres unmarked) [casodex]", "values": [
      {"measurement": "tumor growth inhibition (tumor area by caliper)", "setting": "[1]; 30 mg/kg s.c.", "value": "totally ineffective"}
    ]},
    {"smiles": "CC#C[C@]1(O)CC[C@H]2[C@@H]3CCC4=CC(=O)CCC4=C3[C@@H](c3ccc(N(C)C)cc3)C[C@@]21C", "note": "[mifepristone]", "values": [
      {"measurement": "effect on apoptosis", "setting": "[2]", "value": "effective inhibitors of apoptosis"},
      {"measurement": "inhibition of tumor growth", "setting": "R3327H", "value": "substantial inhibition of tumor growth"},
      {"measurement": "tumor growth inhibition (tumor area by caliper)", "setting": "[1]; 10 mg/kg s.c., 5 times weekly", "value": "totally ineffective"}
    ]},
    {"smiles": "CC/C(=C(\\c1ccccc1)c1ccc(OCCN(C)C)cc1)c1ccccc1", "note": "[tamoxifen]", "values": [
      {"measurement": "effect on apoptosis", "setting": "[2]", "value": "effective inhibitors of apoptosis"}
    ]}
  ]
}
